Reference: patent US12162872B2, “Cycloalkylurea derivative” (Sumitomo Pharma Co., Ltd., priority 2019, dated 2024)

Molecular target: T1, Human orexin receptor type 2 (Homo sapiens, UniProt O43614)
T1 construct: expressed in transfected cells; host or cells: CHO cells (transient expression)
T1 sequence (O43614 1-444): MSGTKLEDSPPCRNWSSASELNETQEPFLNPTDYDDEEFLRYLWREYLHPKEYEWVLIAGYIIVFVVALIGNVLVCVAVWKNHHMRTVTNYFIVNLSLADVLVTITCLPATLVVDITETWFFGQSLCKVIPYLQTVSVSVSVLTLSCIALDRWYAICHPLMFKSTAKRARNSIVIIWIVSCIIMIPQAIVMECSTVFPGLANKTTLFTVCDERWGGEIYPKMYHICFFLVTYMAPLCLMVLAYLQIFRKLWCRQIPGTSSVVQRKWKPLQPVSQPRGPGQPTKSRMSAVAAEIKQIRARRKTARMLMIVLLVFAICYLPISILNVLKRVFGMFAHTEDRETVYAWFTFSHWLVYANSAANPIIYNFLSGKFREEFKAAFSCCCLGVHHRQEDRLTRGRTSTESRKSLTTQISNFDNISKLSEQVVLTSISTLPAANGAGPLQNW
Assay: Test 2: Evaluation of agonist activity for orexin receptor type 2 (aequorin luminescence, intracellular calcium mobilization in CHO cells)
Format: cell-based
Details: relative percentage of luminescence for the luminescence (100%) of Orexin A (100 pM); CHO cells transiently expressing human orexin receptor type 2 and apoaequorin; Orexin A Lot. 671009
Method: Test 2: Evaluation of Agonist Activity for Orexin Receptor Type 2
Human orexin receptor type 2 and apoaequorin were transiently expressed in CHO cells, and the agonist activity was evaluated based on intracellular calcium mobilization with ligand stimulation. The CHO cells transiently-expressed human orexin receptor type 2 and apoaequorin were seeded on a 384-well plate by 2,000 cells/well, and then incubated for 16-22 hours. After the plate was returned to room temperature, Coelenterazine hcp (final concentration: 1 μM) was added to the plate, and the plate was allowed to stand at room temperature for 2 hours. And then, Orexin A (PEPTIDE INSTITUTE, INC., Lot. 671009) or each test compound was added to the plate, and the luminescence of the cells was measured with FDSS7000 (Hamamatsu Photonics K.K.), wherein Orexin A and each test compound were dissolved in DMSO (final concentration: 0.1%), and diluted with a buffer (Hanks, 20 mM HEPES, 0.1% BSA). The agonist activity of each test compound for orexin receptor type 2 was calculated as relative percentage of luminescence for the luminescence (100%) of Orexin A (100 pM).

SMILES | agonist activity (%)
CC(C)N(C)[C@@H]1CCN([C@H]2CCCC(F)(F)[C@@H]2NC(=O)N2CCC(C)(c3noc([C@@H]4C[C@@H]4F)n3)CC2)C1 [Example 112, N-[(1R,6S)-2,2-difluoro-6-{(3R)-3-[methyl(propan-2-yl)amino]pyrrolidin-1-yl}cyclohexyl]-4-{5-[(1S,2S)-2-fluorocyclopropyl]-1,2,4-oxadiazol-3-yl}-4-methylpiperidine-1-carboxamide] | 376%
CC1(CN2CC[C@H](O[C@H]3CCCC(F)(F)[C@@H]3NC(=O)N3CCC(C)(c4noc(C5CC5)n4)CC3)C2)CC1 [Example 126, 4-(5-cyclopropyl-1,2,4-oxadiazol-3-yl)-N-[(1R,6S)-2,2-difluoro-6-({(3S)-1-[(1-methylcyclopropyl)methyl]pyrrolidin-3-yl}oxy)cyclohexyl]-4-methylpiperidine-1-carboxamide] | 394%
CC(C)N1CC[C@H](N(Cc2ccccc2)[C@H]2CCCC(F)(F)[C@@H]2NC(=O)N2CCC(C)(c3noc([C@@H]4C[C@@H]4F)n3)CC2)C1 [Example 91, N-[(1R,6S)-6-{benzyl[(3S)-1-(propan-2-yl)pyrrolidin-3-yl]amino}-2,2-difluorocyclohexyl]-4-{5-[(1S,2S)-2-fluorocyclopropyl]-1,2,4-oxadiazol-3-yl}-4-methylpiperidine-1-carboxamide] | 243%
CN(CC1CC1)[C@H]1CCN([C@H]2CCCC(F)(F)[C@@H]2NC(=O)N2CCC(C)(c3noc(C4CC4)n3)CC2)C1 [Example 138, N-[(1R,6S)-6-{(3S)-3-[(cyclopropylmethyl)(methyl)amino]pyrrolidin-1-yl}-2,2-difluorocyclohexyl]-4-(5-cyclopropyl-1,2,4-oxadiazol-3-yl)-4-methylpiperidine-1-carboxamide] | 385%
CC(C)c1nc([C@H]2CCCC(F)(F)[C@@H]2NC(=O)N2CCC(C)(c3noc(C4CC4)n3)CC2)no1 [Example 85, 4-(5-cyclopropyl-1,2,4-oxadiazol-3-yl)-N-{(1R,6S)-2,2-difluoro-6-[5-(propan-2-yl)-1,2,4-oxadiazol-3-yl]cyclohexyl}-4-methylpiperidine-1-carboxamide] | 360%
CC(C)n1cc(O[C@H]2CCCC(F)(F)[C@@H]2NC(=O)N2CCC(C)(c3noc([C@@H]4C[C@@H]4F)n3)CC2)cn1 [Example 88, N-[(1R,6S)-2,2-difluoro-6-{[1-(propan-2-yl)-1H-pyrazol-4-yl]oxy}cyclohexyl]-4-{5-[(1S,2S)-2-fluorocyclopropyl]-1,2,4-oxadiazol-3-yl}-4-methylpiperidine-1-carboxamide] | 201%
CO[C@@H]1CN(C(C)C)C[C@H]1O[C@H]1CCCC(F)(F)[C@@H]1NC(=O)N1CCC(C)(c2noc([C@@H]3C[C@@H]3F)n2)CC1 [Example 108, N-[(1R,6S)-2,2-difluoro-6-{[(3R,4R)-4-methoxy-1-(propan-2-yl)pyrrolidin-3-yl]oxy}cyclohexyl]-4-{5-[(1S,2S)-2-fluorocyclopropyl]-1,2,4-oxadiazol-3-yl}-4-methylpiperidine-1-carboxamide] | 292%
CC(C)CN1CC[C@H](O[C@H]2CCCC(F)(F)[C@@H]2NC(=O)N2CCC(C)(c3noc([C@@H]4C[C@@H]4F)n3)CC2)C1 [Example 107, N-[(1R,6S)-2,2-difluoro-6-{[(3S)-1-(2-methylpropyl)pyrrolidin-3-yl]oxy}cyclohexyl]-4-{5-[(1S,2S)-2-fluorocyclopropyl]-1,2,4-oxadiazol-3-yl}-4-methylpiperidine-1-carboxamide] | 363%
CC(C)N1CCN([C@H]2CCCC(F)(F)[C@@H]2NC(=O)N2CCC(C)(c3noc([C@@H]4C[C@@H]4F)n3)CC2)[C@H](C)C1 [Example 111, N-{(1R,6S)-2,2-difluoro-6-[(2R)-2-methyl-4-(propan-2-yl)piperazin-1-yl]cyclohexyl}-4-{5-[(1S,2S)-2-fluorocyclopropyl]-1,2,4-oxadiazol-3-yl}-4-methylpiperidine-1-carboxamide] | 382%
CC(C)N1CC[C@H](O[C@H]2CCCC(F)(F)[C@@H]2NC(=O)N2CCC(C)(c3noc(C4CCC4)n3)CC2)C1 [Example 102, 4-(5-cyclobutyl-1,2,4-oxadiazol-3-yl)-N-[(1R,6S)-2,2-difluoro-6-{[(3S)-1-(propan-2-yl)pyrrolidin-3-yl]oxy}cyclohexyl]-4-methylpiperidine-1-carboxamide] | 374%

The remaining lines, values ahead:

agonist activity (%) | SMILES
369% | CCC1(c2noc([C@@H]3C[C@@H]3F)n2)CCN(C(=O)N[C@@H]2[C@@H](O[C@H]3CCN(C(C)C)C3)CCCC2(F)F)CC1 [Example 103, N-[(1R,6S)-2,2-difluoro-6-{[(3S)-1-(propan-2-yl)pyrrolidin-3-yl]oxy}cyclohexyl]-4-ethyl-4-{5-[(1S,2S)-2-fluorocyclopropyl]-1,2,4-oxadiazol-3-yl}piperidine-1-carboxamide]
378% | CC(C)(C)CN1CC[C@H](O[C@H]2CCCC(F)(F)[C@@H]2NC(=O)N2CCC(C)(c3noc(C4CC4)n3)CC2)C1 [Example 119, 4-(5-cyclopropyl-1,2,4-oxadiazol-3-yl)-N-[(1R,6S)-6-{[(3S)-1-(2,2-dimethylpropyl)pyrrolidin-3-yl]oxy}-2,2-difluorocyclohexyl]-4-methylpiperidine-1-carboxamide]
447% | CC(C)N1CC[C@H](N(C)[C@H]2CCCC(F)(F)[C@@H]2NC(=O)N2CCC(C)(c3noc([C@@H]4C[C@@H]4F)n3)CC2)C1 [Example 95, N-[(1R,6S)-2,2-difluoro-6-{methyl[(3S)-1-(propan-2-yl)pyrrolidin-3-yl]amino}cyclohexyl]-4-{5-[(1S,2S)-2-fluorocyclopropyl]-1,2,4-oxadiazol-3-yl}-4-methylpiperidine-1-carboxamide]
365% | CC(C)c1cn([C@H]2CCCC(F)(F)[C@@H]2NC(=O)N2CCC(C)(c3noc([C@@H]4C[C@@H]4F)n3)CC2)nn1 [Example 93, N-{(1R,6S)-2,2-difluoro-6-[4-(propan-2-yl)-1H-1,2,3-triazol-1-yl]cyclohexyl}-4-{5-[(1S,2S)-2-fluorocyclopropyl]-1,2,4-oxadiazol-3-yl}-4-methylpiperidine-1-carboxamide]
23% | CC(C)N1CCN([C@H]2CCCC(F)(F)[C@@H]2N(C)C(=O)N2CCC(C)(c3noc([C@@H]4C[C@@H]4F)n3)CC2)CC1 [Example 146, N-{(1R,6S)-2,2-difluoro-6-[4-(propan-2-yl)piperazin-1-yl]cyclohexyl}-4-{5-[(1S,2S)-2-fluorocyclopropyl]-1,2,4-oxadiazol-3-yl}-N,4-dimethylpiperidine-1-carboxamide]
372% | CC(C)N1CCC(O[C@H]2CCCC(F)(F)[C@@H]2NC(=O)N2CCC(C)(c3noc(C4CC4)n3)CC2)CC1 [Example 84, 4-(5-cyclopropyl-1,2,4-oxadiazol-3-yl)-N-[(1R,6S)-2,2-difluoro-6-{[1-(propan-2-yl)piperidin-4-yl]oxy}cyclohexyl]-4-methylpiperidine-1-carboxamide]
379% | CC1(CN2CC[C@H](O[C@H]3CCCC(F)(F)[C@@H]3NC(=O)N3CCC(C)(c4noc([C@@H]5C[C@@H]5F)n4)CC3)C2)CC1 [Example 121, N-[(1R,6S)-2,2-difluoro-6-({(3S)-1-[(1-methylcyclopropyl)methyl]pyrrolidin-3-yl}oxy)cyclohexyl]-4-{5-[(1S,2S)-2-fluorocyclopropyl]-1,2,4-oxadiazol-3-yl}-4-methylpiperidine-1-carboxamide]
382% | CC(C)Cc1cn([C@H]2CCCC(F)(F)[C@@H]2NC(=O)N2CCC(C)(c3noc([C@@H]4C[C@@H]4F)n3)CC2)nn1 [Example 94, N-{(1R,6S)-2,2-difluoro-6-[4-(2-methylpropyl)-1H-1,2,3-triazol-1-yl]cyclohexyl}-4-{5-[(1S,2S)-2-fluorocyclopropyl]-1,2,4-oxadiazol-3-yl}-4-methylpiperidine-1-carboxamide]
326% | CC(C)OC1CCN([C@H]2CCCC(F)(F)[C@@H]2NC(=O)N2CCC(C)(c3noc([C@@H]4C[C@@H]4F)n3)CC2)CC1 [Example 101, N-[(1R,6S)-2,2-difluoro-6-{4-[(propan-2-yl)oxy]piperidin-1-yl}cyclohexyl]-4-{5-[(1S,2S)-2-fluorocyclopropyl]-1,2,4-oxadiazol-3-yl}-4-methylpiperidine-1-carboxamide]
376% | CN(CC1CC1)[C@H]1CCN([C@H]2CCCC(F)(F)[C@@H]2NC(=O)N2CCC(C)(c3noc([C@@H]4C[C@@H]4F)n3)CC2)C1 [Example 137, N-[(1R,6S)-6-{(3S)-3-[(cyclopropylmethyl)(methyl)amino]pyrrolidin-1-yl}-2,2-difluorocyclohexyl]-4-{5-[(1S,2S)-2-fluorocyclopropyl]-1,2,4-oxadiazol-3-yl}-4-methylpiperidine-1-carboxamide]
